The values that follow are results of earlier work, collected in PMC8025584, “Identification of multipotent drugs for COVID-19 therapeutics with the evaluation of their SARS-CoV2 inhibitory activity” (Computational and Structural Biotechnology Journal, 2021).

Counter-ions that a name gives are not always drawn. Like-named read-outs stand apart in the source and are kept apart here.

The subject of the series is differentially expressed human proteins in COVID-19. The settings on record: cited from earlier work.
[1] abbreviates: gene HCK, drug-gene interaction listed in DGIdb export, ref DGIdb.
[2] abbreviates: gene CACNA1A, drug-gene interaction listed in DGIdb export, ref DGIdb.
Where [3] appears, read: gene CCR1, drug-gene interaction listed in DGIdb export, ref DGIdb.

Turning to `COc1ccc(/C=C\c2cc(OC)c(OC)c(OC)c2)cc1OP(=O)(O)O` [FOS[…]], the interaction_types result (gene TUBA4A, ref DGIdb) was “inhibitor”. As for `CC(O)(P(=O)(O)O)P(=O)(O)O` [ETIDRONIC ACID], for the setting “gene SLC25A4, ref DGIdb”, the interaction_types result is “inhibitor”. Take `CC1=C(/C=C/C(C)=C/C=C/C(C)=C/C(=O)O)C(C)(C)CCC1` [TRETINOIN, reference compound]: the interaction_types result (gene RXRB, ref DGIdb) is recorded as “agonist”. In the case of `Cn1cc(C2=C(c3cn(C)c4cc([N+](=O)[O-])ccc34)C(=O)NC2=O)c2ccccc21` [ENMD-981693], the interaction_types result by setting is: (gene FGR, ref DGIdb) “inhibitor”; under setting [1], “inhibitor”. With `O=C(CCc1ccc(O)cc1)c1c(O)cc(O)cc1O` [PHLORETIN], the interaction_types entry (gene AQP9, ref DGIdb) is listed as “inhibitor”. As for `C[C@H]1[C@@H](O)O[C@@H]2O[C@@]3(C)CC[C@H]4[C@H](C)CC[C@@H]1[C@@]24OO3` [ARTENIMOL], the interaction_types entry (gene PFN1, ref DGIdb) was “ligand”. On to `C[C@H](NC(=O)C(=O)Nc1ccccc1C(C)(C)C)C(=O)N[C@@H](CC(=O)O)C(=O)COc1c(F)c(F)cc(F)c1F`, for which the interaction_types result is on record as “inhibitor” (gene CASP4, ref DGIdb) and “inhibitor” (gene CASP5, ref DGIdb). In the case of `Cc1nc(Nc2ncc(C(=O)Nc3c(C)cccc3Cl)s2)cc(N2CCN(CCO)CC2)n1` [DASATINIB], the interaction_types result runs as follows: (gene FGR, ref DGIdb) “inhibitor”; under setting [1], “inhibitor”.

As to `CC[C@]1(O)C[C@@H]2CN(CCc3c([nH]c4ccccc34)[C@@](C(=O)OC)(c3cc4c(cc3OC)N(C)[C@H]3[C@@](O)(C(=O)OC)[C@H](OC(C)=O)[C@]5(CC)C=CCN6CC[C@]43[C@@H]65)C2)C1` [VINBLASTINE SULFATE], the interaction_types result (gene TUBA4A, ref DGIdb) is listed as “inhibitor”. For the molecule `CCOc1ccc2nc(S(N)(=O)=O)sc2c1` [ETHOXZOLAMIDE], the interaction_types result (gene CA1, ref DGIdb) is reported as “inhibitor”. On to `CC(C)COCC(CN(Cc1ccccc1)c1ccccc1)N1CCCC1` (stereo not shown) [BEPRIDIL HYDROCHLORIDE], for which, under setting [2], the interaction_types entry is “blocker”. On to `C/C(=C\c1csc(C)n1)[C@@H]1C[C@@H]2O[C@]2(C)CCC[C@H](C)[C@H](O)[C@@H](C)C(=O)C(C)(C)[C@@H](O)CC(=O)N1` [IXABEPILONE], for which the interaction_types result (gene TUBA4A, ref DGIdb) is “inhibitor”. Regarding `NS(=O)(=O)c1cc2c(cc1C(F)(F)F)NCNS2(=O)=O` [HYDROFLUMETHIAZIDE], the interaction_types result (gene CA1, ref DGIdb) is recorded as “inhibitor”. Turning to `Nc1ccncc1` [DALFAMPRIDINE], the interaction_types entry (gene KCNH7, ref DGIdb) is “blocker”. For `CCN[C@H]1C[C@H](C)S(=O)(=O)c2sc(S(N)(=O)=O)cc21` [DORZOLAMIDE], the interaction_types result (gene CA1, ref DGIdb) was “inhibitor”.

As for `CN1CC[C@]23c4c5ccc(O)c4O[C@H]2[C@@H](O)C=C[C@H]3[C@H]1C5` [MORPHINE], the interaction_types entry was “activator”.

For the molecule BAMINERCEPT, where the note is “gene TNFSF14, ref DGIdb”, the interaction_types entry is on record as “inhibitor”. On to `CCOc1ccc(-c2ccc(Cn3c(CC(C)(C)C(=O)O)c(SC(C)(C)C)c4cc(OCc5ccc(C)cn5)ccc43)cc2)cn1` [FIBOFLAPON], for which, where the note is “gene ALOX5AP, ref DGIdb”, the interaction_types entry is recorded as “inhibitor”.

For the molecule `CC(=O)O[C@@]12CO[C@@H]1C[C@H](O)[C@@]1(C)C(=O)[C@H](O)C3=C(C)[C@@H](OC(=O)[C@H](O)[C@@H](NC(=O)OC(C)(C)C)c4ccccc4)C[C@@](O)([C@@H](OC(=O)c4ccccc4)[C@H]21)C3(C)C` [DOCETAXEL, reference compound], the interaction_types result (gene TUBA4A, ref DGIdb) is given as “inhibitor”. As for `COc1cc(/C=N/NC(=O)c2ccc3c(c2)OCO3)ccc1OCc1ccccc1` [chembl:CHEMBL1290251], the interaction_types entry (gene FPR1, ref DGIdb) is on record as “agonist”. As to `CCCCCC/C=C\CCCCCCCCCC(=O)N[C@H]1[C@H](OC[C@H]2O[C@H](OP(=O)(O)O)[C@H](NC(=O)CC(=O)CCCCCCCCCCC)[C@@H](OCCCCCCCCCC)[C@@H]2O)O[C@H](COC)[C@@H](OP(=O)(O)O)[C@@H]1OCC[C@@H](CCCCCCC)OC` [ERITORAN TETRASODIUM], the interaction_types entry (gene LY96, ref DGIdb) is reported as “antagonist”. Consider BELIMUMAB, for which the interaction_types entry (gene TNFSF13B, drug-gene interaction listed in DGIdb export, ref DGIdb) is “antibody¦inhibitor¦modulator”. `N[C@@H](Cc1c[nH]cn1)C(=O)O` [HISTIDINE]: the interaction_types result (gene CA1, ref DGIdb) is recorded as “activator”. Take `CC1(C)O[C@@H]2[C@@H](CO[C@@]3(COS(N)(=O)=O)OC(C)(C)O[C@@H]23)O1` [TOPIRAMATE]: for the setting “gene CA1, ref DGIdb”, the interaction_types entry is listed as “inhibitor”.

On to `O=P(O)(O)C(Cl)(Cl)P(=O)(O)O` [CLODRONIC ACID], for which, for the setting “gene SLC25A4, ref DGIdb”, the interaction_types entry is given as “inhibitor”.

For the molecule `CSCC[C@@H]1NC(=O)[C@H](CC(C)C)NC(=O)[C@H](CCCNC(=N)N)NC(=O)[C@H](CO)NC(=O)[C@@H]2CSSC[C@@H]3NC(=O)[C@H](CO)NC(=O)CNC(=O)[C@H]([C@@H](C)O)NC(=O)[C@H](CSSC[C@H](N)C(=O)N[C@@H](CCCCN)C(=O)NCC(=O)N[C@@H](CCCCN)C(=O)NCC(=O)N[C@@H](C)C(=O)N[C@@H](CCCCN)C(=O)N2)NC(=O)[C@H](CSSC[C@@H](C(N)=O)NC(=O)[C@H](CCCCN)NC(=O)CNC(=O)[C@H](CO)NC(=O)[C@H](CCCNC(=N)N)NC3=O)NC(=O)[C@H](CC(=O)O)NC(=O)[C@H](Cc2ccc(O)cc2)NC1=O` [ZICONOTIDE], the interaction_types entry is listed as “inhibitor”. `Nc1ncc(-c2cnn(CCO)c2)c2scc(-c3ccc(NC(=O)Nc4cccc(F)c4)cc3)c12` [ILORASERTIB]: the interaction_types entry is reported as “inhibitor” (gene FGR, ref DGIdb) and “inhibitor” under setting [1].

For `CCN1CCCC1CNC(=O)c1cc(S(N)(=O)=O)ccc1OC` (stereo not shown) [SULPIRIDE], under “gene CA1, ref DGIdb”, the interaction_types result is listed as “inhibitor”.

As to `C#CC1(OC(N)=O)CCCCC1` [ETHINAMATE], the interaction_types entry is “inhibitor”. In the case of `CNC(=O)c1cc(Cl)c(OC(C)(C)C(=O)O)cc1OC[C@@H](O)CN1CCC2(CC1)Cc1cc(Cl)ccc1O2` [AZD4818], the interaction_types entry under setting [3] was “antagonist”. `C=CCC1=C(C)C(OC(=O)[C@@H]2[C@@H](C=C(C)C)C2(C)C)CC1=O` (stereo partly shown) [BIOALLETHRIN]: under setting [2], the interaction_types result is listed as “blocker”. With `NS(=O)(=O)c1cc2c(cc1Cl)NC(C(Cl)Cl)NS2(=O)=O` (stereo not shown) [TRICHLORMETHIAZIDE, reference compound], the interaction_types result (gene CA1, ref DGIdb) is given as “inhibitor”. As to `O=C(Nc1ccncc1)C(=O)c1cn(Cc2ccc(Cl)cc2)c2ccccc12` [INDIBULIN], the interaction_types result (gene TUBA4A, ref DGIdb) is “inhibitor”. `Cl.N=C(N)N` [GUANIDINE HYDROCHLORIDE]: where the note is “gene KCNH7, ref DGIdb”, the interaction_types result was “blocker”. As for DENENICOKIN, under “gene IL2RG, ref DGIdb”, the interaction_types result is reported as “agonist”. Consider BRENTUXIMAB VEDOTIN, for which the interaction_types entry (gene TUBA4A, ref DGIdb) was “inhibitor”. Regarding `CN(C)C(=O)C(CCN1CCC(O)(c2ccc(Cl)cc2)CC1)(c1ccccc1)c1ccccc1` [LOPERAMIDE], under setting [2], the interaction_types entry is on record as “inhibitor”.

On to `COc1cc(N2CCN(C(=O)Cn3nc(-c4ncc[nH]4)c4cccnc43)CC2)ccc1Cl` [CCX354], for which the interaction_types result under setting [3] was “antagonist”. As to `C[C@H]1CC(CN)(CC(=O)O)C[C@@H]1C` [ATAGABALIN], the interaction_types result under setting [2] is on record as “modulator”. As to `O=S(=O)(N[C@H](CO)C(C(F)(F)F)C(F)(F)F)c1ccc(Cl)s1` [BEGACESTAT], the interaction_types result (gene PSENEN, ref DGIdb) is on record as “inhibitor”.

Consider THROMBIN, for which the interaction_types result (gene F5, drug-gene interaction listed in DGIdb export, ref DGIdb) is “activator”.

As to `CC(OC(=O)NCC1(CC(=O)O)CCCCC1)OC(=O)C(C)C` (stereo not shown) [GABAPENTIN ENACARBIL, reference compound], the interaction_types entry under setting [2] is on record as “modulator”.
